Assay [1] concerns the target Macrophage colony-stimulating factor 1 receptor (Homo sapiens, UniProt P07333). Kind of assay: Antagonism towards Colony stimulating factor 1 receptor (CSF-1R). It counts as functional.
In assay [2] the target is Epidermal growth factor receptor (Homo sapiens, UniProt P00533). Kind of assay: Antagonism towards Epidermal growth factor receptor.
The target in assay [3] is Platelet-derived growth factor receptor (Homo sapiens, UniProt P09619+P16234). Kind of assay: Inhibition of platelet-derived growth factor receptor (PDGF-R).
The target of assay [4] is Tyrosine-protein kinase Lck (Homo sapiens, UniProt P06239). Kind of assay: Inhibition of p56 lck tyrosine kinase (inactive).

Structures are written as SMILES. A value given as a limit tells only on which side of the number the result lay.

Sequence of Macrophage colony-stimulating factor 1 receptor (P07333 whole entry): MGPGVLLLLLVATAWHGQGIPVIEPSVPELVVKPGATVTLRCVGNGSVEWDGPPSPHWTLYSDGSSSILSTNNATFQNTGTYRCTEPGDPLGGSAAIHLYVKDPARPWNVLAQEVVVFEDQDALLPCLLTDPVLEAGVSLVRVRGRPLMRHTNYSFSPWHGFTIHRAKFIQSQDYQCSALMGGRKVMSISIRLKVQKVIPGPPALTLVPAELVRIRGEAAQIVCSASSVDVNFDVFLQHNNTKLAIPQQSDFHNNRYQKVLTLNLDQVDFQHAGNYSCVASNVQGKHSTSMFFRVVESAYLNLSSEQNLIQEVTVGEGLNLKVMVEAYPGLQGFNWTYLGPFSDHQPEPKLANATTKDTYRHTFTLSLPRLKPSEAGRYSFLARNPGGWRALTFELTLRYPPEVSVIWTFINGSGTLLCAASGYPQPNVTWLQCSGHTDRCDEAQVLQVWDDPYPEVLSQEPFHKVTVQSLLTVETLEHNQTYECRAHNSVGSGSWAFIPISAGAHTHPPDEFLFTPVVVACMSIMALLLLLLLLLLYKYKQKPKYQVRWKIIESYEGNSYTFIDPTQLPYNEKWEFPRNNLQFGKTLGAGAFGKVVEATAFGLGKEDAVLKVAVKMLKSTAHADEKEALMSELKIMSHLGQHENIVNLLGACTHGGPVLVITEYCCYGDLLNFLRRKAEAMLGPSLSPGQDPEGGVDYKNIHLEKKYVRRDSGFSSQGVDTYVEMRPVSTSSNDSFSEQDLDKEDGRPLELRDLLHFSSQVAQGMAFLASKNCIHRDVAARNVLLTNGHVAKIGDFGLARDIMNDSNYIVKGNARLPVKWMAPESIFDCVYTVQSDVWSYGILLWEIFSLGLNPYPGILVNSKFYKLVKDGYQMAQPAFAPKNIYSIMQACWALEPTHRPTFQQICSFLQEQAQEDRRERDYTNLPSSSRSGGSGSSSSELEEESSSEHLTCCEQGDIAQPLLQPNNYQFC
Sequence of Epidermal growth factor receptor (P00533 whole entry): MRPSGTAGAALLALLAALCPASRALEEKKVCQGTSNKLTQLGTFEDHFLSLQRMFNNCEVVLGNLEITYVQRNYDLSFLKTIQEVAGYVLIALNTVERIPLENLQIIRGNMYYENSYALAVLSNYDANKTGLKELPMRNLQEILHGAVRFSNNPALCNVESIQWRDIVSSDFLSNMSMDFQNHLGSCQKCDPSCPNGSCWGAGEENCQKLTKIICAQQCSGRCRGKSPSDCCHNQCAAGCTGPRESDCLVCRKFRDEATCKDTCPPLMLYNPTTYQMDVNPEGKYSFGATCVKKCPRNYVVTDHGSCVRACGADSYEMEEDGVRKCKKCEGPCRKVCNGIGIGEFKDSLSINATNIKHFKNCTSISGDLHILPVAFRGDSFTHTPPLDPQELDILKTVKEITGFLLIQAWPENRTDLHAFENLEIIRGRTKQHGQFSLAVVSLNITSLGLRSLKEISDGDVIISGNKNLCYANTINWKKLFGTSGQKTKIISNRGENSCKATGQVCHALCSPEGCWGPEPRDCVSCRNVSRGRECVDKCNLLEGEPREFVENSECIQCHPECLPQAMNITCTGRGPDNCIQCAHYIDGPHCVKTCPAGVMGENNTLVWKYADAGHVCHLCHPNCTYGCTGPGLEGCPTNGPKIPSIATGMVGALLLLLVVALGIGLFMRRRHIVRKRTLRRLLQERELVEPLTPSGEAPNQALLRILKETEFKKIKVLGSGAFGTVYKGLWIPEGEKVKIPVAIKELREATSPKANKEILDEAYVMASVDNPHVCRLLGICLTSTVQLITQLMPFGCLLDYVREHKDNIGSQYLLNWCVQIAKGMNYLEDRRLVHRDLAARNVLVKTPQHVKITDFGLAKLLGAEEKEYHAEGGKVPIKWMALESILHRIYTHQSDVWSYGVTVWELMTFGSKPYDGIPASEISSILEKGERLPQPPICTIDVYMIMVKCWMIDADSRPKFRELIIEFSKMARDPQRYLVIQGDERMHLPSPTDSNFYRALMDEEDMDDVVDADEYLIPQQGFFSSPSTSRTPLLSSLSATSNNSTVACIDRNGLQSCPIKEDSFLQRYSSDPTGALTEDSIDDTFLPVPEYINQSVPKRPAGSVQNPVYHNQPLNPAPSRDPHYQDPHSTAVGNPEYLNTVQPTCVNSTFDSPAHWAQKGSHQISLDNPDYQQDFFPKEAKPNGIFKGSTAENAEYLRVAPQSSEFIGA
Sequence of Tyrosine-protein kinase Lck (P06239 whole entry): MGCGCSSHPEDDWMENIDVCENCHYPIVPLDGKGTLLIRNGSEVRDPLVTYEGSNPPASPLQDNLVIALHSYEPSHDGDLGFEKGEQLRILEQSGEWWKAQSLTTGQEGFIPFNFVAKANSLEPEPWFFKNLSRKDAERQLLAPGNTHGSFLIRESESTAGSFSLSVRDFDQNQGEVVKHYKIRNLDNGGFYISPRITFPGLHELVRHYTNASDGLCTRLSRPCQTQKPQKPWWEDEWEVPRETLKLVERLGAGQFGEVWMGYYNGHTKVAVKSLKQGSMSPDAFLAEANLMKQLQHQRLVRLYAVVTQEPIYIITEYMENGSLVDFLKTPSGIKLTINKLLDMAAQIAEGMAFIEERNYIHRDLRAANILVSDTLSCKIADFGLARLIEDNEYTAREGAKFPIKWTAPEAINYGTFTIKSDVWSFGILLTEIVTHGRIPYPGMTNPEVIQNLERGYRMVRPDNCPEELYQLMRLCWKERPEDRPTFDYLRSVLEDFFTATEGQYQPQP

By IC50 is commonly meant the concentration at which inhibition is half-maximal. Read a high IC50 as lower potency. On to `Cc1cc(C)c2ncnc(N(C)c3ccccc3)c2c1`, for which the IC50 in assay [1] and in assay [2] was more than 20 µM throughout.
Turning to `CN(c1ccccc1)c1ncnc2ccc(Cl)cc12`, the IC50 was 5 µM in assay [1] and more than 20 µM in assay [2].
For `COc1cc2nc(Cl)nc(N(C)c3ccccc3)c2cc1OC`, in that order: more than 50 µM and more than 50 µM.
For `COc1nc(N(C)c2ccccc2)c2cc(OC)c(OC)cc2n1`, in that order: more than 50 µM and more than 50 µM.
For `Cc1cccc(N(C)c2ncnc3n[nH]cc23)c1`, in that order: 0.18 µM and more than 50 µM.
As for `CN(c1ccccc1)c1ncnc2ccccc12`, the results for the IC50 in assay [1] and in assay [2] were more than 20 µM and more than 50 µM, respectively.
On the same counts, the results for `CN(c1ccccc1)c1ncnc2[nH]cnc12` are 4 µM and 2 µM.
`COc1cc2ncnc(N(C)c3cccc(C(F)(F)F)c3)c2cc1OC`: the IC50 in assay [1] was 0.5 µM; in assay [2], 30 µM.
For `CN(c1ccccc1)c1[nH]cnc2nncc1-2`, the IC50 was 0.6 µM in assay [1] and more than 50 µM in assay [2].
For `COc1cc2ncnc(Nc3ccccc3)c2cc1OC`, in that order: more than 50 µM and 0.05 µM.
Regarding `COc1ccc2ncnc(N(C)c3ccccc3)c2c1`, the IC50 in assay [1] was 20 µM; in assay [2], more than 20 µM.
On the same counts, the results for `COc1cc2ncnc(N(C)c3ccc(Cl)cc3)c2cc1OC` are 2.1 µM and 3 µM.
As to `COc1cc2ncnc(N(C)c3ccccc3)c2cc1OC`, the results for the IC50 in assay [3], in assay [4] and in assay [2] were 15 µM, more than 100 µM and 4 µM, respectively.
On to `COc1cc2ncnc(Nc3cc(OC)c(OC)c(OC)c3)c2cc1OC`, for which the values for the IC50 in assay [1] and in assay [3] were more than 100 µM and 20 µM, respectively.
Regarding `COc1cc2c(N(C)c3ccccc3)ncnc2c(OC)c1OC`, the IC50 in assay [1] and in assay [2] was more than 20 µM in each case.
With `COc1cc2ncnc(N(C)c3ccc(C)cc3)c2cc1OC`, the 50% inhibitory concentration (IC50) in assay [1] amounted to 2 µM; in assay [2], 4 µM.
On the same counts, the results for `COc1cc2ncnc(N3CCc4ccccc43)c2cc1OC` are 5 µM and 3 µM.
For `COc1cc2ncnc(N(C)c3cccc(C)c3)c2cc1OC`, the IC50 in assay [1] was 0.18 µM; in assay [2], 12 µM.
For `COc1cc2ncnc(N(C)c3cccc(Cl)c3)c2cc1OC`, in that order: 1.5 µM and 0.1 µM.
On to `CCN(c1ccccc1)c1ncnc2cc(OC)c(OC)cc12`, for which the IC50 in assay [2] was determined as 5.5 µM.
`Cc1cccc(N(C)c2ncnc3cc(C)c(C)cc23)c1`: the IC50 stood at 1.6 µM in assay [1] and 6.5 µM in assay [2].
